Source: ChEMBL document CHEMBL1201862, “PubChem BioAssay data set” (2004)
Active and inactive are the calls of the source. Rule as the data show it: actives have a measured IC50 and inactives only a lower limit.

Molecular target: Envelope glycoprotein gp160 (Human immunodeficiency virus 1, UniProt Q6QLK5)
Experiment: cell-free HIV fusion peptide-binding blockers – biochemical, uHTS, fluorescence dequenching, […] (AID 1986)

Sequence of Envelope glycoprotein gp160 (Q6QLK5 whole entry, the tested form may be a part): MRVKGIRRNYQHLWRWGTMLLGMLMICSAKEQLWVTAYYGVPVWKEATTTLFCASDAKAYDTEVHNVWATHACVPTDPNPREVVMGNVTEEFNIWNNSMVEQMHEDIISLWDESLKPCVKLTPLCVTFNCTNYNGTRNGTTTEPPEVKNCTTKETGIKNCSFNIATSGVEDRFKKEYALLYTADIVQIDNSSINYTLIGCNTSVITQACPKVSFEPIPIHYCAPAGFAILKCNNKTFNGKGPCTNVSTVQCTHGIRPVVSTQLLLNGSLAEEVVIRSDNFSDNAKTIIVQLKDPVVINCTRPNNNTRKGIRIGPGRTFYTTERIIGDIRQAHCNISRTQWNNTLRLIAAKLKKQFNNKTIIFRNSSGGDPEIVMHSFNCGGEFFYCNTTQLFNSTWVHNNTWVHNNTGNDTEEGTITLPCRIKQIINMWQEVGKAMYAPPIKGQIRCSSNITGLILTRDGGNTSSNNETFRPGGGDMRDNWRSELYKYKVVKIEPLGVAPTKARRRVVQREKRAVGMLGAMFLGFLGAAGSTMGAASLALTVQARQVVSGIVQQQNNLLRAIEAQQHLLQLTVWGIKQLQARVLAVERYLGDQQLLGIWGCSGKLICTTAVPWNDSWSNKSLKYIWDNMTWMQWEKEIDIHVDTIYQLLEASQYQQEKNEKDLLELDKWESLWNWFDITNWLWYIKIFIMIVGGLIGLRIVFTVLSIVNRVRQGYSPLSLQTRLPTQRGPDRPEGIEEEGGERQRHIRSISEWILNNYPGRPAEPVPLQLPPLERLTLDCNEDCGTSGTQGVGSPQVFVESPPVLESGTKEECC

Row | Structure (SMILES) | IC50
1 | O=C(O)c1[nH]c2ccccc2c1C(c1cc(Br)ccc1O)c1c(C(=O)O)[nH]c2ccccc12 | 4.11 µM (active)
2 | COc1cc(/C=N/Nc2ccc(Cl)c(C(=O)O)c2)ccc1OC(=O)c1ccc(F)cc1 | 26.8 µM (active)
